Test results published in patent publication US20040121965A1, “Method of treating resistant tumors” (Wyeth Holdings Corporation, priority 2002, published 2004).
Read-outs that look alike come from different tables or passages of the source. Marks after values point to notes of the source that are not given here.

Assays:
SK-Mel-2 = test: Cell survival assay (SRB), SK-Mel-2; format: cell-based; conditions: Homo sapiens
Method: (§1) 2.2. Cell Survival Assay: Standard Pharmacological Test Procedure. […] Compounds are incubated with cells for 3 days.

BT474 = test: Cell survival assay (SRB), BT474; format: cell-based; conditions: Homo sapiens, BT-474, 72 h
Method: as §1

CCRF-CEM = test: Cell survival assay (MTS), CCRF-CEM; format: cell-based; conditions: Homo sapiens, 72 h
Method: as §1

[1] = system: Human Epidermoid Carcinoma KB-3-1; test: Growth of tumors in nude mice, KB-3-1 xenograft; format: in vivo; conditions: for % T/C on day 7 / % T/C on day 14 / % T/C on day 21: KB-3-1, days 1,5,9
Method: 2.4. Growth of Tumors in Nude Mice.
In these experiments, xenografts are implanted subcutaneously into the flanks of nude mice. […] Relative tumor mass compared to controls are assessed during the 21-day post-staging period.
Groups of 5 female nu/nu mice are injected with 1.5×10^6 KB-3-1 (A) or Lox cells (B). […] Relative tumor growth is determined during the experiment and % T/C calculated. Statistical analyses are Student's t-test of treated time points vs. vehicle (*, P<0.05; **, P<0.01)

SKOV3 = test: Cell survival assay (SRB), SKOV3; format: cell-based; conditions: Homo sapiens, SK-OV-3, 72 h
Method: as §1

[2] = system: KB-PTX-15+099 tumor xenografts; test: Growth of tumors in nude mice, KB-PTX-15+099 xenograft; conditions: days 1,8,15
NCI-H1299 = test: Cell survival assay (SRB), NCI-H1299; format: cell-based; conditions: Homo sapiens
Method: as §1

Colo205 = test: Cell survival assay (SRB), Colo205; format: cell-based; conditions: Homo sapiens, COLO 205, 72 h
Method: as §1

A549 = test: Cell survival assay (SRB), A549; format: cell-based; conditions: Homo sapiens
Text: Cells lines with previously known mechanisms of resistance. […] Res. 8: 207-218,1996); KB-3-1 (parental derived from an epidermoid carcinoma), KB-8.5, KB-V1 (Akiyama S-I, Fojo A, Hanover J A, Pastan I, Gottesman M M. Isolation and genetic characterization of human KB cell lines resistant to multiple drugs. Somatic Cell Mol. Gen., 11: 117-126,1985; Shen D-W, Cardarelli C, Hwang J, Cornwell M, Richert N, Ishii S, Pastan I, Gottesman MM. […] J. Biol. Chem., 261: 7762-7770, 1986); and HL-60 (parental derived from human leukemia) and HL60/AR (McGrath T., Center M. S. Adriamycin resistance in HL60 cells in the absence of detectable P-glycoprotein. Biochem. Res. Commun., 145:1171-1176,1987); A549 and A549.EpoB40 (He L., Yang C.-P.H., Horwitz S. B. Mutations in p-tubulin map to domains involved in regulation of microtubule stability in epothilone-resistant cell lines. Molecular Cancer Therapeutics. 1: 3-10, 2001). HCT-15 human colon carcinoma and DLD-1 human colon carcinoma are obtained from American Tissue Culture Collection. The MX-1W carcinoma is a Wyeth variant orginally obtained as MX-1 breast carcinoma from the National Cancer Institute. Cell lines selected for resistance to Representative Example 129. […]
2.2. […] Absorbance is read on a Victor V multi-label plate reader (Perkin Elmer, Gaithersburg, Md.).

SK-MES-1 = test: Cell survival assay (SRB), SK-MES-1; format: cell-based; conditions: Homo sapiens
Method: as §1

1A9 = test: Cell survival assay (SRB), 1A9; format: cell-based; conditions: Homo sapiens
Method: as §1

Moser = test: Cell survival assay (SRB), Moser; format: cell-based; conditions: 72 h
Method: as §1

KB-3-1 = test: Cell survival assay (SRB), KB-3-1; format: cell-based, human
Outline: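 IC50 for 50% growth inhibition after 3-day compound exposure, tested in duplicate. SRB protein staining of TCA-fixed cells (10% TCA, 1 hr, 4 °C), solubilised in Tris base and read by absorbance, was used as the survival read-out, with KB-3-1 grown in 20% FCS.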

CN[C@H](C(=O)N[C@H](C(=O)N(C)[C@H](/C=C(\C)C(=O)O)C(C)C)C(C)(C)C)C(C)(C)c1ccccc1 [Example 129, N,β,β-trimethyl-L-phenylalanyl-N^1-[(1S,2E)-3-carboxy-1-isopropylbut-2-enyl]-N^1,3-dimethyl-L-valinamide]
IC50 (SK-Mel-2; SK-MEL-2, 72 h): 1.7 ± 0.5 nM
IC50 (BT474): 2.5 ± 1.6 nM
IC50 (CCRF-CEM): 0.2 ± 0.03 nM
growth inhibition of epidermoid KB-3-1 tumors ([1]; IV in saline, days 1, 5, 9 post-staging, 0.5-1 mg/kg, tumors 1-2 gram): > 95%
% T/C on day 7 ([1]; Example 129 1.6 mg/kg IV): 10** %
% T/C on day 14 ([1]; Example 129 1.6 mg/kg IV): 1** %
% T/C on day 21 ([1]; Example 129 1.6 mg/kg IV): 23* %
IC50 (SKOV3): 1.7 nM
% T/C on day 6 ([2]; Example 129 1.25 mg/kg IV): 32** %
% T/C on day 9 ([2]; Example 129 1.25 mg/kg IV): 19** %
% T/C on day 13 ([2]; Example 129 1.25 mg/kg IV): 9** %
% T/C on day 16 ([2]; Example 129 1.25 mg/kg IV): 10** %
% T/C on day 20 ([2]; Example 129 1.25 mg/kg IV): 7** %
IC50 (NCI-H1299; NCI-H1299, 72 h): 6.8 ± 6.1 nM
IC50 (Colo205): 1.5 ± 0.6 nM
IC50 (A549; A549, 72 h): 1.1 ± 0.5 nM
IC50 (SK-MES-1; SK-MES-1, 72 h): 2.6 nM
IC50 (1A9; 1A9, 72 h): 0.56 ± 0.09 nM
IC50 (Moser): 5.3 ± 4.1 nM
IC50 (KB-3-1): 1.2 nM
IC50 (KB-3-1; Homo sapiens, KB 3-1): ~1 nM
IC50 (KB-3-1; Homo sapiens, KB 3-1, 72 h): 0.96 nM
IC50 (KB-3-1; Homo sapiens, KB 3-1, 72 h, read-out: IC50 + 5.0 uM MDR-1 inhibitor): 0.9 nM
IC50 (KB-3-1; Homo sapiens, KB 3-1, 72 h, read-out: IC50 in parental cell line KB-3-1): 1 nM
IC50 (KB-3-1; Homo sapiens, KB 3-1, read-out: KB-3-1 IC50 (nM)): 0.612 ± 0.023 nM
IC50 (KB-3-1; Homo sapiens, KB 3-1, read-out: KB-3-1 IC50, nM): 0.53 ± 0.05 nM
IC50 (KB-3-1; Homo sapiens, KB 3-1, read-out: KB-3-1 IC50, nM (N)): 0.96 nM

CC(=O)O[C@H]1C(=O)[C@@]2(C)[C@H]([C@H](OC(=O)c3ccccc3)[C@]3(O)C[C@H](OC(=O)[C@H](O)[C@@H](NC(=O)c4ccccc4)c4ccccc4)C(C)=C1C3(C)C)[C@]1(OC(C)=O)CO[C@@H]1C[C@@H]2O [paclitaxel, reference compound]
IC50 (SK-Mel-2; 72 h, SK-Mel-2, melanoma, 3 days, SRB staining, read-out: IC50): 3.2 ± 1.8 nM
IC50 (BT474; BT474, breast, 3 days, SRB staining, read-out: IC50): 10 nM
IC50 (CCRF-CEM; leukemia, 3 days, MTS assay, read-out: IC50): 3.3 ± 1.3 nM
% T/C on day 7 ([1]; paclitaxel 60 mg/kg IV): 5** %
% T/C on day 14 ([1]; paclitaxel 60 mg/kg IV): 0** %
% T/C on day 21 ([1]; paclitaxel 60 mg/kg IV): 0** %
IC50 (SKOV3; SKOV3, ovarian, 3 days, SRB staining, read-out: IC50): 9 nM
% T/C on day 6 ([2]; paclitaxel 60 mg/kg IV): 103%
% T/C on day 9 ([2]; paclitaxel 60 mg/kg IV): 93%
% T/C on day 13 ([2]; paclitaxel 60 mg/kg IV): 89%
% T/C on day 16 ([2]; paclitaxel 60 mg/kg IV): 87%
% T/C on day 20 ([2]; paclitaxel 60 mg/kg IV): 90%
IC50 (NCI-H1299; 72 h, NCI-H1299, NSCLC, 3 days, SRB staining, read-out: IC50): 37.7 ± 12.6 nM
IC50 (Colo205; Colo205, colon, 3 days, SRB staining, read-out: IC50): 6.9 ± 2.3 nM
IC50 (A549; 72 h, A549, NSCLC, 3 days, SRB staining, read-out: IC50): 8.8 ± 3.6 nM
IC50 (SK-MES-1; 72 h, SK-MES-1, NSCLC, 3 days, SRB staining, read-out: IC50): 29 nM
IC50 (1A9; 72 h, 1A9, ovarian, 3 days, SRB staining, read-out: IC50): 5.1 ± 0.9 nM
IC50 (Moser; Moser, colon, 3 days, SRB staining, read-out: IC50): 1590 ± 1990 nM
IC50 (KB-3-1; Homo sapiens, KB 3-1, 72 h, KB-3-1, epidermoid, 3 days, SRB staining, read-out: IC50): 3.9 ± 1.8 nM
IC50 (KB-3-1; Homo sapiens, KB 3-1, 72 h, KB-3-1, 3 days, SRB, + 5.0 uM MDR-1 inhibitor (heptanenitrile), mean of two experiments, read-out: IC50 + 5.0 uM MDR-1 inhibitor): 2.1 nM
IC50 (KB-3-1; Homo sapiens, KB 3-1, 72 h, KB-3-1, 3 days, SRB, vehicle (DMSO), no MDR-1 inhibitor, mean of two experiments, read-out: IC50): 2.2 nM
IC50 (KB-3-1; Homo sapiens, KB 3-1, 72 h, amount of drug needed to kill 50% of cells after three days continuous exposure, Table 11, read-out: IC50 in parental cell line KB-3-1): 3.9 nM
IC50 (KB-3-1; Homo sapiens, KB 3-1, KB-3-1, Table 6, read-out: KB-3-1 IC50): 2.74 ± 0.39 nM
IC50 (KB-3-1; Homo sapiens, KB 3-1, KB-3-1 parental, Table 3, read-out: KB-3-1 IC50, nM (N)): 3.9 ± 1.8 nM
IC50 (KB-3-1; Homo sapiens, KB 3-1, KB-3-1 parental, Table 8, read-out: KB-3-1 IC50): 2.66 ± 0.92 nM
